Holding throughout (assay): growth of human tumour cells (NCI), 48 h
The subject of assay [1] is HCT-116 colon.
The subject of assay [2] is HT29 colon.
The test system of assay [3] is LOX IMVI melanoma.
The test system of assay [4] is NCI-H522 lung.
In assay [5] the test system is OVCAR-8 ovarian.
The subject of assay [6] is PC-3 prostate.
Assay [7] has as its system SR leukemia.
Assay [8] has as its system SW-620 colon.
In assay [9] the test system is UACC-62 melanoma.
The test system of assay [10] is EKVX NSCLC.

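Each compound was tested at five concentrations against cells in 96-well plates for 48 hours. GI50 = concentration required for 50% inhibition of growth. Definition used: TGI = concentration required for complete inhibition of growth.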

As for `Brc1ccc(Nc2nc3ccccc3nc2Nc2ccc(Br)cc2)cc1`, the GI50 in assay [1] was 0.418 µM; in assay [2], 0.404 µM; in [3] it was 1.72 µM; in assay [4], 0.449 µM; in assay [5] it was 0.773 µM; in assay [6], 0.637 µM. The GI50 in [7] is 0.715 µM; in assay [8], 2.78 µM; in [9], 1.94 µM. Besides, the TGI in assay [1] came out at 1.65 µM; in assay [2], 10.9 µM; in assay [3], 3.31 µM; in assay [4], 3.25 µM; in [5], 10.8 µM; in assay [6] it was 10.4 µM. For the same compound, the TGI in [7] came out at 5.52 µM; in assay [8], 10.5 µM; in assay [9], 5.37 µM.

Regarding `O=c1[nH]c(F)nc2c1ncn2C1OC(CO)C(O)C1O` (stereo not given), the GI50 in [1], in [3], in [5], in [6], in assay [7] and in assay [8] was > 100 µM each time. Also, in [9], the GI50 is > 100 µM. The TGI in [1], in assay [3], in assay [5], in assay [6], in assay [7] and in [8] was > 100 µM each time. Also, the TGI in assay [9] is > 100 µM.

For `O=C1NC(=O)C(c2ccccc2)=C1Nc1ccccc1`, the GI50 in assay [10], in [1], in assay [2], in assay [3], in assay [4] and in [5] was > 25 µM in each case. Besides, the GI50 in [6], in [8] and in [9] was > 25 µM each time. Besides, the TGI in assay [10], in assay [1], in assay [2], in [3], in [4] and in assay [5] was > 25 µM in each case. In addition, the TGI in assay [6], in assay [8] and in assay [9] was > 25 µM in each case.

Turning to `COc1ccccc1NC(=O)C(=O)Cc1cnc2ccccc2n1`, the TGI in assay [1], in [2], in [3], in assay [5], in assay [6] and in assay [7] was > 100 µM in each case. Moreover, the TGI in [8] and in assay [9] was > 100 µM in each case.

As to `CCOC(=O)c1cn(CC)c2ccc3ccsc3c2c1=O`, the TGI in assay [10], in assay [1], in assay [2], in assay [3], in assay [4] and in [5] was > 100 µM in each case. Also, the TGI in assay [6], in [8] and in assay [9] was > 100 µM throughout.

In the case of `CCCCCCc1cc2cc(-c3csc(/C=C/c4ccccc4)n3)c(=O)oc2cc1O`, the GI50 in assay [1] was 3.39 µM; in assay [2], > 100 µM; in assay [3], 3.29 µM; in assay [4], 3.93 µM; in assay [5] it was 2.79 µM; in [6], 5.39 µM. The GI50 in assay [7] is 2.88 µM; in assay [8], 5.6 µM; in assay [9], 13.9 µM. The TGI in assay [1] was 12.1 µM; in assay [2] it was > 100 µM; in assay [3] it was 12.8 µM; in assay [4], 17.9 µM; in assay [5] it was 9.55 µM; in [6] it was 34.4 µM. For the same compound, the figures for the TGI in [7], in [8] and in assay [9] were 9.69 µM, 20.7 µM and 28.1 µM, respectively.

For `FC(F)(F)c1ccc(-c2ncc(-c3ccc(C(F)(F)F)cc3)c(NCc3cc(C(F)(F)F)cc(C(F)(F)F)c3)n2)cc1`, the GI50 was 3.84 µM in assay [1]; 6.95 µM in assay [2]; 3.4 µM in assay [3]; 3.29 µM in assay [4]; 3.8 µM in [5]; 3.09 µM in assay [6]. The GI50 in [7] was 5.07 µM; in [8] it was 3.95 µM; in assay [9] it was 3.77 µM. Also, the TGI in [1] was > 100 µM; in assay [2], > 100 µM; in [3] it was 26.2 µM; in assay [4] it was 22.6 µM; in assay [5], > 100 µM; in assay [6], 18.3 µM. Besides, the TGI in [7], in assay [8] and in [9] was > 100 µM throughout.

Turning to `FC(F)(F)c1cc(-c2ncn(/C=C\c3nnco3)n2)cc(C(F)(F)F)c1`, the GI50 in assay [1] is 0.0621 µM; in assay [2] it was 0.12 µM; in [3] it was 0.0902 µM; in assay [4], 0.0381 µM; in assay [5], 0.0589 µM; in assay [6], 0.093 µM. In addition, the GI50 is 0.0246 µM in assay [7], 0.0536 µM in [8] and 0.189 µM in assay [9]. The TGI in assay [1] was > 41.9 µM; in [2], 48.2 µM; in assay [3], 3.82 µM; in assay [4] it was 0.445 µM; in [5], > 47.7 µM; in assay [6], > 36.9 µM. Besides, the TGI in assay [7] is 12.6 µM; in assay [8], > 43.1 µM; in [9] it was 6.76 µM.

For `Cc1ccc(NC(=O)c2nc(S(C)(=O)=O)oc2-c2ccc(F)cc2)cc1Nc1ccc2ncn(C)c(=O)c2c1`, the figures for the GI50 in [1], in assay [6] and in [9] were 1.75 µM, 2.13 µM and 2.03 µM, respectively. For the same compound, the TGI in [1] turned out to be 3.37 µM; in assay [6], 4.47 µM; in assay [9] it was 4.88 µM.

Turning to `N#Cc1c2ccccc2c2nnc3ccc(C(F)(F)F)cc3n12`, the GI50 in assay [1] is 58.4 µM; in [2] it was 61.8 µM; in [3], 21.6 µM; in assay [4], 17 µM; in assay [5] it was 43.8 µM; in assay [6], 61.1 µM. The GI50 in assay [7] was 0.214 µM; in assay [8] it was 66.7 µM; in assay [9] it was 66.8 µM. The TGI was > 100 µM in assay [1]; > 100 µM in [2]; 94.5 µM in assay [3]; 68.1 µM in [4]; > 100 µM in [5]; > 100 µM in assay [6]. Besides, the TGI in [7], in assay [8] and in assay [9] was > 100 µM in each case.

Source of the values: PubChem BioAssay (NCI).
